Values joined by “and” are separate entries in the source; they are usually repeats but may differ in a detail not shown here. Identical values can stand only once. Like-named read-outs stand apart in the source and are kept apart here.
What was measured:
[1] = target: T1, SARS-CoV-2 NSP3 macrodomain (Mac1) (Severe acute respiratory syndrome coronavirus 2, UniProt P0DTD1); experiment: biochemical; assay type: binding
[2] = target: T1, SARS-CoV-2 NSP3 macrodomain (Mac1); assay type: binding; conditions: for 1-BDC (PanDDA run, DMSO background map): event 1; for 2*(1-BDC) (%): occupancy estimate from PanDDA; for Total number of conformations: ligand conformations modeled in the crystal structure
[3] = HTRF binding curve, SARS-CoV-2 Mac1
[4] = SARS CoV-2 macrodomain HTRF assay, dose-response
[5] = PanDDA background density correction, 1-BDC
[6] = crystal soak 10 mM, DMSO background map
[7] = crystal soak, 10 mM soak concentration, P43 crystal form
[8] = ligand-bound crystal structure obtained (TRUE)
[9] = site occupied in X-ray crystal structure
[10] = TRUE = crystal structure with ligand obtained
[11] = site of ligand in X-ray crystal structure
[12] = SARS CoV-2 macrodomain HTRF assay, single dose concentration 200 μM, read-out: Average % competition
[13] = compound at 200 μM, mean of three to four technical replicates, read-out: % competition at 200 μM (preliminary HTRF screen)
[14] = PanDDA background density correction factor
[15] = crystal soak 10 mM, P43 crystal form
[16] = refined crystallographic occupancy
[17] = crystal soak concentration 10 mM, DMSO background map
[18] = crystal soak concentration 10 mM, P43 crystals
[19] = crystal soak concentration 20 mM, DMSO background map
[20] = crystal soak concentration 20 mM, P43 crystals
[21] = soak concentration 10 mM, DMSO background map
[22] = soak concentration 10 mM, P43 crystals

| SMILES | Hill slope [1, 3] | Hill slope [1, 4] | 1-BDC [2, 5] | Hit (PanDDA run, DMSO background map) [2, 6] | 1-BDC (PanDDA run, DMSO background map) [2, 6] | Hit (PanDDA run, overall) [2, 7] | Refined ligand occupancy (%) ([2]; crystallographic refinement) | X-ray crystal structure [2, 8] | 2*(1-BDC) (%) [2] [%] | Binding site [2, 9] | X-ray crystal structure [2, 10] | Binding site [2, 11] | Occupancy difference (refined_occupancy - 2*(1-BDC)) [2] | 1-BDC [2, 14] | PanDDA run, overall: Hit [2, 15] | PanDDA run, DMSO background map: 1-BDC [2, 6] | PanDDA run, DMSO background map: Hit [2, 6] | Total number of conformations [2] | Refined ligand occupancy (%) [2, 16] [%] | also measured |
| --- | --- | --- | --- | --- | --- | --- | --- | --- | --- | --- | --- | --- | --- | --- | --- | --- | --- | --- | --- | --- |
| C[C@@H]1CCN(c2ncnc3[nH]ccc23)[C@H](CO)C1 [AVI-4064] | 1.2 | 1.2 | 0.19 | TRUE | 0.19 | TRUE | 38 | TRUE | 38 | Adenosine | – | – | – | – | – | – | – | – | – | – |
| O=C(O)C(F)(F)F.OC[C@H](Cc1ccc(O)cc1)Nc1ncnc2[nH]ccc12 [AVI-4066] | 1.1 | 1.1 | 0.2 | TRUE | 0.2 and 0.37 and 0.38 | TRUE | 50 | – | 40 | – | TRUE | Adenosine | – | – | – | – | – | – | – | – |
| OCC1CC2(CCCC2)CN1c1ncnc2[nH]ccc12 (centres unmarked) [AVI-3708] | 1.1 | 1.1 | – | – | – | – | – | TRUE | 64 | Adenosine | – | – | 0 | 0.32 | TRUE | 0.32 | TRUE | 1 | 64 | inhibition at 200 µM [1, 12]: 90%; inhibition at 200 µM [1, 13]: 90% |
| OCC(CN1CCCCC1)Nc1ncnc2[nH]ccc12 (centres unmarked) [AVI-3677] | – | – | – | – | – | – | – | – | 42 | – | TRUE | Adenosine | 0 | 0.21 | TRUE | 0.21 | TRUE | 1 | 42 | detectable binding at 200 μM in the HTRF assay ([1]; result in words): neither had detectable binding; PanDDA run, overall: Modeled [2, 15]: TRUE |
| CC1(C)C[C@@H](CO)N(c2ncnc3[nH]ccc23)C1.O=C(O)C(F)(F)F [AVI-3704] | 1.1 | 1.1 | – | – | – | – | – | TRUE | 66 | Adenosine | – | – | 0 | 0.33 | TRUE | 0.33 | TRUE | 1 | 66 | inhibition at 200 µM [1, 12]: 90%; inhibition at 200 µM [1, 13]: 90% |
| Cc1c[nH]c2ncnc(NCC3(O)CCSCC3)c12 [AVI-4195, 4-(((5-methyl-7H-pyrrolo[2,3-d]pyrimidin-4-yl)amino)methyl)tetrahydro-2H-thiopyran-4-ol] | 1.2 | 1.2 | 0.14 | – | – | – | 28 | TRUE | 28 | Adenosine | – | – | – | – | – | – | – | – | – | Hit (PanDDA run, DMSO background map) [2, 17]: TRUE; Modeled (PanDDA run, DMSO background map) [2, 17]: TRUE; 1-BDC (PanDDA run, DMSO background map) [2, 17]: 0.14; Hit (PanDDA run, overall) [2, 18]: TRUE; Modeled (PanDDA run, overall) [2, 18]: TRUE; Modeling comment (PanDDA run, overall) [2, 18]: Duplicate, not modeled |
| OCC1C2CCC(C2)N1c1ncnc2[nH]ccc12 (centres unmarked) [AVI-3713] | 1.1 | 1.1 | – | – | – | – | – | TRUE | 58 | Adenosine | – | – | 0 | 0.29 | TRUE | 0.29 | TRUE | 1 | 58 | – |
| OC1(CNc2ncnc3[nH]ccc23)CCCC(C(F)(F)F)C1 (centres unmarked) [AVI-4309] | 1.4 | 1.4 | 0.2 | TRUE | 0.21 | TRUE | 40 | TRUE | 40 | Adenosine | – | – | – | – | – | – | – | – | – | – |
| OCCC(CO)Nc1ncnc2[nH]ccc12 (centres unmarked) [AVI-3734] | 1.2 | 1.2 | – | – | – | – | – | – | 50 | – | TRUE | Adenosine | 0 | 0.25 | TRUE | 0.25 | TRUE | 1 | 50 | – |
| CC1CCC(O)(CNc2ncnc3[nH]ccc23)CC1 (centres unmarked) [AVI-4312] | 1.2 | 1.2 | 0.22 | – | – | – | 44 | TRUE | 44 | Adenosine | – | – | – | – | – | – | – | – | – | – |
| OCC(Cc1ccccc1)Nc1ncnc2[nH]ccc12 (centres unmarked) [AVI-313] | 1.2 | – | – | – | – | – | – | – | 36 | – | – | – | 14 | 0.18 | – | – | – | 2 | 50 | Hill slope ([1]; dose-response): 1.2; X-ray crystal structure ([2]; TRUE = ligand-bound crystal structure obtained (PDB code given)): TRUE; Hit (PanDDA run, DMSO background map) [2, 19]: TRUE; 1-BDC (PanDDA run, DMSO background map) [2, 19]: 0.25; Hit (PanDDA run, overall) [2, 20]: TRUE; Modeling comment (PanDDA run, overall) [2, 20]: Duplicate, not modeled; Binding site ([2]; site of Mac1 occupied in the X-ray crystal structure (Adenosine or Distal)): Adenosine; PanDDA run, DMSO background map: 1-BDC [2, 21]: 0.18; PanDDA run, DMSO background map: Hit [2, 21]: TRUE; PanDDA run, DMSO background map: Modeled [2, 21]: TRUE; PanDDA run, overall: Hit [2, 22]: TRUE; PanDDA run, overall: Modeled [2, 22]: TRUE |
| OCC(Nc1ncnc2[nH]ccc12)C1CC1 (centres unmarked) [AVI-3651] | 1.2 | 1.2 | – | – | – | – | – | – | 36 | – | TRUE | Adenosine | 0 | 0.18 | TRUE | 0.18 | TRUE | 1 | 36 | PanDDA run, overall: Modeled [2, 15]: TRUE |
| OC1(CNc2ncnc3[nH]ccc23)CCCOC1 (centres unmarked) [AVI-4311] | 1.4 | 1.4 | 0.25 | TRUE | 0.25 | TRUE | 50 | TRUE | 50 | Adenosine | – | – | – | – | – | – | – | – | – | – |

— PMC12118597 (Science Advances, 2025)
